# Measured values published in patent US12428447B2, “Peptide-based non-proteinaceous cargo delivery” (priority 2019, dated 2025).
# Bridges are numbered along the chain shown (N, C = ends). Where no end group is shown, it is not given here. [ ]: non-standard residue; d: D form.
# Assays:
# HedgeHog pathway = assay: Hedgehog pathway inhibitor transduction in vivo, depilated mouse hair regrowth; parameters: species or system C57BL6 mice; conditions: 100 μM inhibitor, topical on depilated skin, in the presence of FSD250D vs in its absence, 10 days post-treatment
# [1] = test system: HedgeHog signalling pathway; assay: Hedgehog pathway inhibitor delivery to Gli-luciferase reporter NIH3T3 cells (luminescence); format: cell-based, Mouse; conditions: for Mean luminescence intensity: inhibitor 100 μM, 90 seconds, mShh-stimulated reporter cells; for cellular luminescence intensity in the presence of FSD250D as compared to in the absence of FSD250D: +mShh, inhibitor transduced by FSD250D
# Procedure: Stock solutions of cargoes were prepared as follows: Gant61 stock (20 mM in DMSO); HPI4 stock (40 mM in DMSO); Itraconazole stock (4.8 mM (4 mg/mL) in DMSO); Arsenic trioxide (ATO) stock (40 mM in H2O). Peptide shuttle agent (5 μM) and Hedgehog pathway inhibitor (100 μM) were mixed and volume was completed to 50 μL with PBS.
# Hedgehog signaling pathway Gli Reporter NIH 3T3 cells were cultured in DMEM containing 10% calf serum. Cells were trypsinized, centrifuged and resuspended at 10 million cells/mL in PBS. 50 μL of cells (500 000 cells/well) were distributed in a round bottom non-treated 96-well plate. Resuspended cells were mixed with a delivery mix containing the peptide shuttle agent (5 μM) and Hedgehog pathway inhibitor (100 μM). Cells were incubated 90 seconds with the delivery mix at room temperature, 200 μL of DMEM containing 10% calf serum (200 μL) was added in each well, and cells were centrifuged (400 g, 4 min.) and washed with 200 μL of PBS. Cells were then resuspended in 200 μL of DMEM and then transferred to a well of a 6-well plate containing 1 mL of DMEM containing 10% calf serum and incubated at 37° C. for 2 hours. The media was gently removed and 1 ml of either control media (Opti-MEM™) or activating media (Opti-MEM with 5 μg/mL mShh) was added to each well. Cells were incubated at 37° C. for 24-30 hours.
# For analyses, cells were trypsinized and resuspended in each well with 200 μL of Opti-MEM™, and then split equally to two wells of a round bottom 96-well plate. Viability was assessed using flow cytometry analysis and ONE-Step Luciferase assay was used to measure luminescence following manufacturer's instructions.
# Briefly, the NIH3T3 Gli-luciferase reporter cell line is designed to monitor the activity of the HedgeHog signaling pathway and contains the firefly luciferase gene under the control of Gli responsive elements stably integrated into NIH3T3 cells. As shown in FIG. 3 and Table 1, exposure of the NIH3T3 Gli-luciferase reporter cells to recombinant mouse Sonic HedgeHog protein as a positive control (“Ctrl+mShh”) results in an increase in luminescence intensity that is not observed in the negative control cells which were not exposed to mShh (“Ctrl−mShh”).
# sodium channel Nav1.7 = molecular target: T1, sodium channel Nav1.7 (Homo sapiens, UniProt Q15858); assay: QX-314 delivery, whole-cell patch-clamp of HEK293 cells stably expressing Nav1.7; format: cell-based
# T1 construct: expressed in transfected cells
# T1 sequence (Q15858 whole entry): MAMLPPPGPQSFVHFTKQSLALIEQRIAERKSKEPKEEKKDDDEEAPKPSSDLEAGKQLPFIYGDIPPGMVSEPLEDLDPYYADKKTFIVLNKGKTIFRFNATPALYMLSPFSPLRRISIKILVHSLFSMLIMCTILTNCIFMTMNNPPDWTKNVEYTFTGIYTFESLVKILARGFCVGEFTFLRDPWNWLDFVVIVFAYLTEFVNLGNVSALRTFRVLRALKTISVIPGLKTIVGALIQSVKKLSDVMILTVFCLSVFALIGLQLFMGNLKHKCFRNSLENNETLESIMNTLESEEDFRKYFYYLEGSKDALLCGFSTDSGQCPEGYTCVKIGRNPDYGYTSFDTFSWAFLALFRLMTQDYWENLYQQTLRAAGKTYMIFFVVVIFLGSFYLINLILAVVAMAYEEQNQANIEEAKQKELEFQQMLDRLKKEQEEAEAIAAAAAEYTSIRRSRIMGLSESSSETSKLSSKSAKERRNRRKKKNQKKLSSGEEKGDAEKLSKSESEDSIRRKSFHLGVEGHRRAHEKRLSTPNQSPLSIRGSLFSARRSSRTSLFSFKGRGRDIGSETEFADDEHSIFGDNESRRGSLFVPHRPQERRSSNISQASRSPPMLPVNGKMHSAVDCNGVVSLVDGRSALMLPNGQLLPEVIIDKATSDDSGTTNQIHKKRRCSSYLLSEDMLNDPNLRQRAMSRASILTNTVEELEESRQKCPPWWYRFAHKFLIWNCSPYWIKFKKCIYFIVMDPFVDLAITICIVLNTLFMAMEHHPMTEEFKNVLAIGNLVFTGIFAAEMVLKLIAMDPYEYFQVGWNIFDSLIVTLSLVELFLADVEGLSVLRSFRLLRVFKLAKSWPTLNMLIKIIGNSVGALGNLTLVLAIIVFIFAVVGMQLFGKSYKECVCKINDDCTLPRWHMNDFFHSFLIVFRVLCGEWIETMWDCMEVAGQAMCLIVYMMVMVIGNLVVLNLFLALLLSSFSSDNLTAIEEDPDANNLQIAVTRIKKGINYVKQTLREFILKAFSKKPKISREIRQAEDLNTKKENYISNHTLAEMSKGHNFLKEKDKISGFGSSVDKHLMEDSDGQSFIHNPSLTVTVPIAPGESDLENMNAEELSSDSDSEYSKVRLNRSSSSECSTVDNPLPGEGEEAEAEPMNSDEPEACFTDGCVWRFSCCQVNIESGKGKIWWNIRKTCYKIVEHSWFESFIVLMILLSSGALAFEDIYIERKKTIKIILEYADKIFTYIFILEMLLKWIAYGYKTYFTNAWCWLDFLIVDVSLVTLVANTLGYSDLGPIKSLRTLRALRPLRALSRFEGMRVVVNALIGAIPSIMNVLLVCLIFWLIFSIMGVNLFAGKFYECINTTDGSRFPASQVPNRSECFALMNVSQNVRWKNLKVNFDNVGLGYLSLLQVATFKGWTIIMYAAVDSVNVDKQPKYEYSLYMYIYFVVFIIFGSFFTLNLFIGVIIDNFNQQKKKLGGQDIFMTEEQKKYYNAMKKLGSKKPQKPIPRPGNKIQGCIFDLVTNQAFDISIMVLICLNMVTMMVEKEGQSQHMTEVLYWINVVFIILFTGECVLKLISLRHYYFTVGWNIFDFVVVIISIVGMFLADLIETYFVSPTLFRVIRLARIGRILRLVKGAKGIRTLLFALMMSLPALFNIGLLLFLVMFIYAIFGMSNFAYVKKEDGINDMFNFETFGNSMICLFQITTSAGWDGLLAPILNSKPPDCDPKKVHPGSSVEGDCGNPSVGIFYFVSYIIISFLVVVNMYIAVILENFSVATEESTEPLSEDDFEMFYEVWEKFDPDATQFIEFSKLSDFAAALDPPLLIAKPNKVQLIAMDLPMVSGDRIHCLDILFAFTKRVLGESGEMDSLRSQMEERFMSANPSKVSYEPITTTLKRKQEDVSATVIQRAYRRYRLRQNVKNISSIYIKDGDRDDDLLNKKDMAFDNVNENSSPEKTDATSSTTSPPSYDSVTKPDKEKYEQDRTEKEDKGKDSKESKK
# Procedure: Cell culture. HEK293 cells stably expressing Nav1.7 were grown in Dulbecco's minimal essential medium (DMEM, Gibco BRL Life Technologies) supplemented with fetal bovine serum (FBS, 10%), L-glutamine (2 mM), penicillin (100 U/mL), streptomycin ([…]). The cells were incubated at 37° C. in a 5% CO2 humidified atmosphere.
# (§1) Delivery. Cells were seeded 24 hours prior to the experiment in 24-well plate. Cells were washed twice with PBS. A solution containing 1 mM of QX-314, 5 μM of FSD194 and 15 μM of GFP-NLS protein was applied to cells for 90 seconds and removed by aspiration. Control was performed using 5 μM of FSD194 or of 2.5 mM QX-314, in presence of GFP-NLS. Cells were washed with 800 μL of DMEM containing 10% FBS and transferred in the recording solution to perform the electrophysiology. GFP-positive cells were determined by microscopy and then selected for patch-clamp analysis.
# Electrophysiology. Frequency protocol with QX-314 was recorded within 30 s after the whole-cell configuration was formed. Frequency protocol consists of a pulse of 10 ms at −20 mV from a holding potential of −140 mV at 10 Hz. Whole-cell Na+ currents in HEK293 cells were recorded at room temperature using an Axopatch 200B with the whole-cell configuration of the patch-clamp technique (Molecular Devices). pClamp v10.0 was used for the pulse stimulations and recordings (Molecular Devices). Currents were filtered at 5 kHz, digitized at 100 kHz using a Digidata 1550 AD converter (Molecular devices), and stored on a computer for subsequent analyses. Series resistance was compensated by 70-80%. When needed, linear leak current artifacts were removed using on-line leak subtraction. Fire-polished low-resistance electrodes (2MS2) were pulled from 8161 glass (Corning).
# Recording Solutions. Bath solution: 35 mM NaCl, 115 mM NMDG, 2 mM KCl, 1.5 mM CaCl2, 1.0 mM MgCl2, 10 mM glucose, 10 mM HEPES. The pH was adjusted to pH 7.3 with 1 M NaOH. Pipette solution: 35 mM NaCl, 105 mM CsF, 10 mM EGTA, and 10 mM HEPES. The pH was adjusted to pH 7.4 with 1 M CsOH.
# HeLa cells = assay: Propidium iodide (PI) transduction in HeLa cells, flow cytometry; format: cell-based, Human; conditions: for delivery / transduction of PI: shuttle or control peptide 10 μM, PI 10 μg/mL, 1 minute, 2 hours after delivery
# Procedure: HeLa cells were plated (20 000 cells/well) in a 96 well-dish the day prior the experiment. Each delivery mix comprising a synthetic peptide shuttle agent (10 μM) and the propidium iodide (PI) (10 μg/mL) or the GFP-NLS (10 μM) were prepared and completed to 50 μL with phosphate-buffered saline (PBS). Cells were washed once with PBS and the Shuttle/PI or Shuttle/GFP-NLS added on cells for one minute. Then 100 μL DMEM containing 10% FBS was added to the mix and removed. Cells were washed once with PBS and incubated in DMEM containing 10% FBS. Cells were analyzed after 2-hour incubation by flow cytometry. For the condition “FS then PI”, only the synthetic peptide shuttle agent (10 μM) was added on HeLa cells for 1 minute and one hour later PI (10 μg/mL) was added for one minute following the same washing step. Cells were analyzed one hour after PI or GFP-NLS treatment.
# HeLa cells were cultured as described in Example 1.3 and subjected to the PI transduction protocol as described in Example 1.4, with the proteinaceous cargo GFP-NLS being transduced separately as a control in some experiments. Results were acquired by flow cytometry two hours after delivery and expressed as percentages of fluorescent cells (% PI+ cells or % GFP+ cells), as shown in FIGS. 1A-1D and as summarized in the table shown in FIG. 2.
# To evaluate the suitability of PI as a “surrogate” cargo for novel shuttle agents, a proprietary library of over 300 candidate peptide shuttle agents was screened in parallel for both PI and GFP-NLS transduction activity in HeLa cells using flow cytometry as generally described in Example 1.4. Aside from the concentrations of the cargoes (i.e., 10 μg/mL for PI vs 10 μM for GFP-NLS), the transduction protocols were otherwise the same.
# Due to the large number of peptides screened, negative controls were performed in parallel for each experimental batch and included a “no treatment” (NT) control in which the cells were not exposed to shuttle peptide or cargo, as well as a “cargo alone” control in which cells were exposed to the cargo in the absence of shuttle agent. Results are shown in FIGS. 6 and 7, in which “transduction efficiency” refers to the percentage of all viable cells that are positive for the cargo (PI or GFP-NLS). “Mean Delivery score” provides a further indication of the total amount of cargo that was delivered per cell, amongst all cargo-positive cells. Mean PI or GFP-NLS delivery score was calculated by multiplying the mean fluorescence intensity (of at least duplicate samples) measured for the viable PI+ or GFP+ cells by the mean percentage of viable PI+ or GFP+ cells, divided by 100,000 for GFP delivery or by 10,000 for PI delivery. […]
# HEK293 cells = assay: GFP-NLS co-transduction in HEK293 cells, microscopy; format: cell-based, Human; conditions: 5 μM FSD194+15 μM GFP-NLS, with or without QX-314
# Procedure: as §1
compound,measurement,setting,value
CN(C)c1ccccc1CN1CCCN(Cc2ccccc2N(C)C)C1c1ccncc1 [Gant61],hair regrowth,HedgeHog pathway,delayed hair regrowth
same,Mean luminescence intensity,[1]; +FSD250D (5 μM),4216
same,cellular luminescence intensity in the presence of FSD250D as compared to in the absence of FSD250D,[1],significantly reduced cellular luminescence intensity
same,Mean luminescence intensity,[1]; −FSD250D,6770
N#C/C(C(=O)c1ccc(Cl)cc1Cl)=C1\NC(=O)c2ccccc2N1 [HPI-4],Mean luminescence intensity,[1]; +FSD250D (5 μM),1993
same,cellular luminescence intensity in the presence of FSD250D as compared to in the absence of FSD250D,[1],significantly reduced cellular luminescence intensity
same,Mean luminescence intensity,[1]; −FSD250D,6370
CCC(C)n1ncn(-c2ccc(N3CCN(c4ccc(OCC5COC(Cn6cncn6)(c6ccc(Cl)cc6Cl)O5)cc4)CC3)cc2)c1=O (stereo not drawn) [Itraconazole],Mean luminescence intensity,[1]; +FSD250D (5 μM),1519
same,Mean luminescence intensity,[1]; −FSD250D,5612
"CC[N+](CC)(CC)CC(=O)Nc1c(C)cccc1C.[Br-] [QX-314, Lidocaine N-ethyl bromide]",evoked whole-cell Na+ current amplitude,"sodium channel Nav1.7; 1 mM QX-314+15 μM GFP-NLS+5 μM FSD194, 90 seconds, 10 ms pulse at 10 Hz",Reduction of the current amplitude
same,evoked whole-cell Na+ current amplitude,"sodium channel Nav1.7; 2.5 mM QX-314+15 μM GFP-NLS, absence of FSD194",current amplitude reduction was not observed
Arsenic trioxide [ATO],Mean luminescence intensity,[1]; +FSD250D (5 μM),4686
same,cellular luminescence intensity in the presence of FSD250D as compared to in the absence of FSD250D,[1],significantly reduced cellular luminescence intensity
same,Mean luminescence intensity,[1]; −FSD250D,5967
"FSD174 Scramble: negative control peptide, same amino acid composition as FSD174, order changed (LGRSGRIKIGGWSALASRARQARGLKIWTQGRL; FSD174 Scramble)","PI transduction efficiency relative to ""cargo alone"" negative control","HeLa cells; negative control peptide, data not shown",lower transduction efficiencies for PI
FSD194: rationally-designed synthetic peptide shuttle agent (KWKLLKLWSRLLKLWGGSGGGSRRLKAKRAKA; FSD194),GFP-NLS-positive cells,HEK293 cells,GFP-NLS-positive cells were identified
same,evoked whole-cell Na+ current amplitude,"sodium channel Nav1.7; 15 μM GFP-NLS+5 μM FSD194, without QX-314",current amplitude reduction was not observed
"FSD250D: same amino acid sequence as FSD250, except that all the amino acids are D-amino acids ([dK][dW][dK][dL][dL][dK][dL][dW][dS][dR][dL][dL][dK][dL][dW]GG[dS]GGG[dS][dA][dR][dA][dA][dR][dQ][dA][dR])",effect of shuttle agent alone on luminescence intensity following mShh stimulation,"[1]; FSD250D together with mShh, no inhibitor, data not shown",had no effect on cellular luminescence intensity
FSD268 Cyclic Amide: cyclic peptide possessing an amide bond between its C and N termini (KWKLLKLWSRLLKLWGGSGGGSQARAQARQAR; head-to-tail cyclic amide; FSD268 Cyclic Amide; (1)..(32) Cyclic peptide covalent link between K1 and R32),delivery / transduction of PI,HeLa cells,increased the delivery of PI
FSD268 Cyclic Disulfide: cyclic peptide with a disulfide bridge between two flanking cysteines added in N and C terminal positions (CKWKLLKLWSRLLKLWGGSGGGSQARAQARQARC; disulfide 1-34),delivery / transduction of PI,HeLa cells,increased the delivery of PI
FSD268: rationally-designed synthetic peptide shuttle agent (KWKLLKLWSRLLKLWGGSGGGSQARAQARQAR; FSD268),delivery / transduction of PI,HeLa cells,increased the delivery of PI
